Measured values published in patent US20230173764A1, “SURGICAL SYSTEM AND METHODS OF USE” (priority 2021, published 2023).

Legend:
myofibroblast formation = conditions: Ajmal et al. (2003); cited from earlier work
fibrinolysis = experiment: concentrations effective against fibrinolysis; conditions: one tenth of the doses used in the non-GLP acute porcine study
Description: However, in some embodiments, however, higher doses of tranexamic acid are used for topical applications to account for tranexamic acid being widely distributed throughout the extracellular and intracellular compartments when given preoperatively.

[1] = given preoperatively; cited from earlier work

SMILES | myofibroblast formation (myofibroblast formation) | effective in reversing fibrinolysis (fibrinolysis) | time to reach plasma concentrations [1]
O=S(=O)([O-])CCS.[Na+] [MESNA, sodium 2-mercaptoethane sulfonate] | diminish myofibroblast formation |  | 
NC[C@H]1CC[C@H](C(=O)O)CC1 [tranexamic acid] |  | effective | 5 to 15 min
